Data taken from publication PMC11401861, “Assessment of the in vitro anti-diabetic activity with molecular dynamic simulations of limonoids isolated from Adalia lemon peels” (Scientific Reports, 2024).
In brackets after ≈: the same amount, converted by molar mass.

Tests used:
[1] = Total antioxidant capacity (TAC), method of Prieto et al.
Procedure: (§1) All in vitro biological activities of the limonoids-rich extract and the isolated compounds were assayed in triplicate at three different concentrations (50, 100, and 200 µg/mL).
The method proposed by Prieto et al.[30] was used to determine the total antioxidant capacity (TAC) expressed as mg […] equivalent per gram weight, using ascorbic acid at the same concentrations as a standard.

[2] = Iron reducing power (IRP), method of Oyaizu
[3] = DPPH radical scavenging activity
Procedure: as §1
The 1,1-Diphenyl-2-picryl-hydrazyl (DPPH) radical scavenging activity was evaluated using the method described by Rahman et al.[32]. Ascorbic acid was used as a positive control at the same concentrations. The inhibition percentage of the DPPH free radical was calculated. The median inhibitory concentration (IC50) of each tested sample was determined by plotting a curve using a series of sample concentrations against the percentage of DPPH inhibition.

[4] = ABTS radical scavenging assay
Procedure: as §1
(§2) The ABTS scavenging capacities of the samples were compared with that of ascorbic acid. The percent inhibition of the ABTS radical was calculated. The IC50 of each tested sample was determined by plotting a curve using a series of sample concentrations against the percent of ABTS inhibition.

[5] = Nitric oxide (NO) radical scavenging activity (Griess Illosvory reagent)
Procedure: as §1
as §2, with “The nitric oxide (NO) radical scavenging activity was estimated by the reaction with Griess Illosvory reagent based on the method proposed by Chakraborthy[34]. The NO” for “The ABTS”, “the NO” for “the ABTS”, “of NO” for “of ABTS”

α-amylase [6] = test: α-Amylase enzyme inhibition assay; assay type: biochemical
Procedure: as §1
(§3) The IC50 of each tested sample was determined by plotting a curve using a series of sample concentrations against the percent of enzyme inhibition.

α-glucosidase [7] = test: α-Glucosidase enzyme inhibition assay; assay type: biochemical
Procedure: as §1, §3

α-amylase [8] = test: Native electrophoretic α-amylase isoenzyme pattern (PAGE); assay type: biochemical; conditions: standard enzyme treated with 100 µg/mL
Procedure: (§4) The relative mobility (Rf), band quantity (Qty) and band percent (B%) of the electrophoretically detected isoenzyme types on the PAGE plate were determined using the Quantity One software program (version 4.6.2). The equation proposed by Nei and Li[39] was used to calculate the percentages of similarity index (SI%) and physiological difference (Diff%).

α-glucosidase [9] = test: SDS-PAGE electrophoretic α-glucosidase pattern; assay type: biochemical; conditions: 100 µg/mL
Procedure: as §4

Q: What does the source list for CC1(C)OC(=O)C[C@H](O)[C@]2(C)[C@H]3CC[C@@]4(C)[C@H](c5ccoc5)OC(=O)[C@H]5O[C@]54[C@]3(C)C(=O)C[C@@H]12 [Cpd2, deacetylnomilin]?
A: TAC ([1]; sample concentration 50 µg/mL): 21.74 ± 0.06 mg gallic acid/g; TAC ([1]; sample concentration 100 µg/mL): 38.70 ± 0.10 mg gallic acid/g; TAC ([1]; sample concentration 200 µg/mL): 68.88 ± 0.19 mg gallic acid/g; IRP ([2]; sample concentration 50 µg/mL): 16.59 ± 0.06 µg/mL; IRP ([2]; sample concentration 100 µg/mL): 29.53 ± 0.10 µg/mL; IRP ([2]; sample concentration 200 µg/mL): 52.56 ± 0.19 µg/mL; IC50 against DPPH radical ([3]; Fig. 2a): 6.40 ± 0.02 µg/mL (≈ 13.5 µM); DPPH Inhibition (%) ([3]; sample concentration 50 µg/mL): 18.90 ± 0.05%; DPPH Inhibition (%) ([3]; sample concentration 100 µg/mL): 33.65 ± 0.09%; DPPH Inhibition (%) ([3]; sample concentration 200 µg/mL): 59.90 ± 0.16%; IC50 against ABTS radical ([4]; Fig. 2a): 6.02 ± 0.03 µg/mL (≈ 12.7 µM); ABTS Inhibition (%) ([4]; sample concentration 50 µg/mL): 16.59 ± 0.06%; ABTS Inhibition (%) ([4]; sample concentration 100 µg/mL): 29.53 ± 0.10%; ABTS Inhibition (%) ([4]; sample concentration 200 µg/mL): 52.56 ± 0.19%; IC50 against NO radical ([5]; Fig. 2a): 7.65 ± 0.04 µg/mL (≈ 16.2 µM); NO Inhibition (%) ([5]; sample concentration 50 µg/mL): 13.75 ± 0.05%; NO Inhibition (%) ([5]; sample concentration 100 µg/mL): 24.48 ± 0.09%; NO Inhibition (%) ([5]; sample concentration 200 µg/mL): 43.58 ± 0.16%; IC50 against α-amylase (α-amylase [6]; Fig. 2b): 5.07 ± 0.03 µg/mL (≈ 10.7 µM); α-Amylase Inhibition (%) (α-amylase [6]; sample concentration 50 µg/mL): 13.49 ± 0.06%; α-Amylase Inhibition (%) (α-amylase [6]; sample concentration 100 µg/mL): 24.01 ± 0.10%; α-Amylase Inhibition (%) (α-amylase [6]; sample concentration 200 µg/mL): 42.74 ± 0.19%; IC50 against α-glucosidase (α-glucosidase [7]; Fig. 2b): 3.89 ± 0.03 µg/mL (≈ 8.23 µM); α-Glucosidase Inhibition (%) (α-glucosidase [7]; sample concentration 50 µg/mL): 9.34 ± 0.06%; α-Glucosidase Inhibition (%) (α-glucosidase [7]; sample concentration 100 µg/mL): 16.63 ± 0.10%; α-Glucosidase Inhibition (%) (α-glucosidase [7]; sample concentration 200 µg/mL): 29.59 ± 0.19%; Change in electrophoretic α-amylase isoenzyme pattern (α-amylase [8]): slight changes; Diff% (physiological difference) of electrophoretic α-amylase pattern from the standard enzyme (α-amylase [8]): 33.33%; SI% (similarity index) of electrophoretic α-amylase pattern to the standard enzyme (α-amylase [8]): 66.67%; Diff% (decrease in the quantity of the identified α-glucosidase band) (α-glucosidase [9]): 40.64%; Qty (band quantity) of the α-glucosidase band (α-glucosidase [9]): 11.08; melting point: 254 °C
